This is an account of results in patent publication US4201843A, “Process for manufacturing tylosin derivatives” (Sanraku Ocean Co., Ltd., priority 1975, dated 1980).

≈ marks a conversion by molar mass, not a printed value.

In data set [1] the test system is Bacillus cereus ATCC 9634. In words: minimum growth-inhibitory concentration. It counts as cell-based. Particulars: ATCC9634. As to the method: (§1) The antimicrobial spectra of new tylosin derivatives of this invention are shown in Table 2 by listing the minimum growth inhibitory concentrations (MIC, mcg/ml). […] The toxicity of these compounds was tested in animals by intravenous administration, and the LD50 values in mice are more than 400 mg/kg with all compounds. In therapeutical experiments with mice manually infected by Staphilococcus aureus SMITH, the ED50 values were less than 50 mg/kg (p.o.) with all said tylosin derivatives.

Data set [2] deals with Bacillus megaterium NRRL B-938. In words: minimum growth-inhibitory concentration. Type of data set: cell-based. Particulars: Priestia megaterium, NRRLB938. As to the method: as §1
The test system of data set [3] is Bacillus subtilis ATCC 6633. In words: minimum growth-inhibitory concentration. Type of data set: cell-based. Particulars: ATCC6633. As to the method: as §1
The subject of data set [4] is Candida albicans IAM 4905. The data set is described as follows: minimum growth-inhibitory concentration. Particulars: IAM4905. Type of data set: cell-based. As for the experimental part: as §1
The subject of data set [5] is Candida tropicalis IAM 4924. In words: minimum growth-inhibitory concentration. It counts as cell-based. Particulars: IAM4924. As for the experimental part:
as §1

The test system of data set [6] is Corynebacterium bovis 1810. The data set is described as follows: minimum growth-inhibitory concentration. Type of data set: cell-based. As to the method:
as §1

For data set [7], the system named is Escherichia coli (National Institute of Health). In words: minimum growth-inhibitory concentration. It counts as cell-based. As for the experimental part: as §1
The test system of the next data set is Micrococcus flavus I. The data set is described as follows: minimum growth-inhibitory concentration. It counts as cell-based. As to the method: as §1
Data set [8] relates to Mycobacterium smegmatis ATCC 607. The data set is described as follows: minimum growth-inhibitory concentration. Type of data set: cell-based. Particulars: Mycolicibacterium smegmatis, ATCC607. As to the method: as §1
Data set [9] relates to Proteus morganii (The Institute for Infectious Diseases). In words: minimum growth-inhibitory concentration. Type of data set: cell-based. Particulars: Morganella morganii. As for the experimental part: as §1
Data set [10] deals with Pseudomonas fluorescens NIHJB 254. The data set is described as follows: minimum growth-inhibitory concentration. It counts as cell-based. Particulars: NIHJB254. As for the experimental part:
as §1

The next data set has as its system Sarcina lutea ATCC 9341. The data set is described as follows: minimum growth-inhibitory concentration. Type of data set: cell-based. Particulars: Micrococcus luteus, ATCC9341. As to the method: as §1
The subject of data set [11] is Staphylococcus aureus FAD209P. In words: minimum growth-inhibitory concentration. It counts as cell-based. Particulars: read-out: minimum growth-inhibitory concentration (MIC). As to the method: as §1
Data set [12] concerns Staphylococcus aureus SMITH. In words: minimum growth-inhibitory concentration. It counts as cell-based. As to the method: as §1
Data set [13] relates to Staphylococcus aureus MS 8710. In words: minimum growth-inhibitory concentration. It counts as cell-based. Particulars: MS8710; Staphylococcus aureus MS 8710, drug resistant strain. As to the method:
as §1
(§2) The strains marked * in Table 2 are the drug resistant strains isolated from patients, namely, Staphilococcus aureus MS-9610 which is resistant to penicillin, tetracycline, erythromycin, leucomycin, spiramycin, josamycin and tylosin, Staphilococcus aureus MS-8710 which is resistant to penicillin, tetracycline, erythromycin, leucomycin and tylosin, and Streptococcus pyogenes MH 771 which is resistant to erythromycin, oleandomycin, leucomycin and tylosin.

Data set [14] has as its system Staphylococcus aureus MS 9610. In words: minimum growth-inhibitory concentration. It counts as cell-based. Particulars: MS9610; Staphylococcus aureus MS 9610, drug resistant strain. As for the experimental part:
as §1, §2

The test system of data set [15] is Streptococcus pyogenes MH 771. The data set is described as follows: minimum growth-inhibitory concentration. Particulars: MH771, read-out: minimum growth-inhibitory concentration (MIC). It counts as cell-based. As to the method: as §1
(broth-dilution method)
as §2

A further data set has as its system drug resistant strains. In words: antimicrobial activity against drug resistant strains. Particulars: strains marked * in Table 2. Type of data set: cell-based.
Text: One of the particular advantages of the said tylosin derivatives over known macrolide antibiotics is their distinct antimicrobial activity against drug resistant bacteria.
as §2

The next data set in a line: solubility in solvents. It counts as physicochemical. Particulars: for solubility in lower alcohols, ketones, ethers, esters, benzene and toluene: e.g. ethanol, acetone, ethyl ether, ethyl acetate. The source says: (§3) The physicochemical analysis and deterimations included elementary analysis, melting point, specific rotatory power, ultraviolet spectrum, infrared spectrum, magnetic nuclear resonance (NMR), C^13 -NMR, mass spectrum (chemical ionization), the release of organic acids under alkaline conditions (gas chromatographical detection), solubility in solvents, color development reaction, basicity of the compounds, appearance and crystalline form. The molecular weight was obtained as QM^+ (Quasi Molecular ion) by chemically-ionized mass spectra analysis.
(§4) (2) the crystals obtained from the solvents in (13) were used for the tests in (1)-(12), and […]

Data set [16] is described as follows: basicity of the compounds (alkalinity). Type of data set: physicochemical.
Text: as §3, §4

As for `CCC1OC(=O)CC(O)C(C)C(OC2OC(C)C(OC3CC(C)(O)C(OC(=O)CC(C)C)C(C)O3)C(N(C)C)C2O)C(CC=O)CC(C)C(=O)/C=C/C(C)=C/C1COC1OC(C)C(O)C(OC)C1OC` (stereo not shown) [4"-isovaleryltylosin], the MIC in data set [1] was 0.98 µg/mL (≈ 0.98 µM); in data set [2], 0.98 µg/mL (≈ 0.98 µM); in data set [3], 0.49 µg/mL (≈ 0.49 µM); in data set [4], above 250 µg/mL; in [5], above 250 µg/mL; in data set [6] it was 0.5 µg/mL (≈ 0.5 µM). Besides, the MIC in [7] is 125 µg/mL (≈ 125 µM); in the data set on Micrococcus flavus I, 0.25 µg/mL (≈ 0.25 µM); in [8], 3.91 µg/mL (≈ 3.91 µM); in data set [9] it was above 250 µg/mL; in data set [10], above 250 µg/mL; against Sarcina lutea ATCC 9341, below 0.12 µg/mL. For the same molecule, the MIC in data set [11] is 0.49 µg/mL (≈ 0.49 µM); in [12] it was 0.25 µg/mL (≈ 0.25 µM); in data set [13], 15.6 µg/mL (≈ 15.6 µM); in data set [14] it was 62.5 µg/mL (≈ 62.5 µM); in data set [15] it was 7.8 µg/mL (≈ 7.8 µM). The “antimicrobial activity against a wide range of drug resistant strains” value in the data set with drug resistant strains is “particularly strong antimicrobial activity”. Further, the “solubility in acidic water” value in “solubility in solvents” is listed as “soluble”. Besides, the “solubility in alkaline water” value in the data set “solubility in solvents” is reported as “hardly soluble”. The “solubility in lower alcohols, ketones, ethers, esters, benzene and toluene” value (“solubility in lower alcohols, ketones” below) in the data set “solubility in solvents” is “soluble”. In the data set “solubility in solvents”, the “solubility in n-hexane and petroleum ether” value is “hardly soluble”. Moreover, the “solubility in neutral water” value in “solubility in solvents” is recorded as “slightly soluble”. In addition, in data set [16], the alkalinity entry is “alkaline compounds”.
For the molecule `CCC1OC(=O)CC(OC(C)=O)C(C)C(OC2OC(C)C(OC3CC(C)(O)C(O)C(C)O3)C(N(C)C)C2O)C(CC=O)CC(C)C(=O)/C=C/C(C)=C/C1COC1OC(C)C(O)C(OC)C1OC` (stereo not shown) [3-acetyltylosin], the MIC was 0.49 µg/mL (≈ 0.511 µM) in data set [1]; 0.25 µg/mL (≈ 0.261 µM) in data set [2]; 0.49 µg/mL (≈ 0.511 µM) in data set [3]; above 250 µg/mL in [4]; above 250 µg/mL in data set [5]; 0.25 µg/mL (≈ 0.261 µM) in data set [6]. Moreover, the MIC was 250 µg/mL (≈ 261 µM) in [7]; below 0.12 µg/mL in the data set on Micrococcus flavus I; 7.81 µg/mL (≈ 8.15 µM) in [8]; above 250 µg/mL in data set [9]; above 250 µg/mL in [10]; below 0.12 µg/mL with Sarcina lutea ATCC 9341. The MIC in data set [11] is 0.25 µg/mL (≈ 0.261 µM); in data set [12], 0.12 µg/mL (≈ 0.125 µM); in [13], 250 µg/mL (≈ 261 µM); in [14], above 250 µg/mL; in data set [15] it was 125 µg/mL (≈ 130 µM). In the data set “solubility in solvents”, the “solubility in acidic water” value is listed as “soluble”. For the same molecule, in the data set “solubility in solvents”, the “solubility in alkaline water” value is “hardly soluble”. For the same molecule, the “solubility in lower alcohols, ketones” value in the data set “solubility in solvents” is reported as “soluble”. For the same molecule, the “solubility in n-hexane and petroleum ether” value in “solubility in solvents” is reported as “hardly soluble”. For the same molecule, in “solubility in solvents”, the “solubility in neutral water” value is recorded as “slightly soluble”. In data set [16], the alkalinity result was “alkaline compounds”.
In the case of `CCC(=O)OC1CC(=O)OC(CC)C(COC2OC(C)C(O)C(OC)C2OC)/C=C(C)/C=C/C(=O)C(C)CC(CC=O)C(OC2OC(C)C(OC3CC(C)(O)C(O)C(C)O3)C(N(C)C)C2O)C1C` (stereo not shown) [3-propionyltylosin], the MIC in data set [1] was 0.25 µg/mL (≈ 0.257 µM); in data set [2], below 0.12 µg/mL; in [3], 0.25 µg/mL (≈ 0.257 µM); in [4] it was above 250 µg/mL; in data set [5] it was above 250 µg/mL; in data set [6], 0.25 µg/mL (≈ 0.257 µM). Moreover, the MIC in data set [7] is 250 µg/mL (≈ 257 µM); against Micrococcus flavus I it was below 0.12 µg/mL; in data set [8] it was 3.91 µg/mL (≈ 4.02 µM); in data set [9], above 250 µg/mL; in [10] it was above 250 µg/mL; in the data set on Sarcina lutea ATCC 9341, below 0.12 µg/mL. The MIC in data set [11] was 0.25 µg/mL (≈ 0.257 µM); in data set [12], 0.12 µg/mL (≈ 0.123 µM); in data set [13] it was 62.5 µg/mL (≈ 64.3 µM); in data set [14], above 250 µg/mL; in [15], 62.5 µg/mL (≈ 64.3 µM). Also, in the data set “solubility in solvents”, the “solubility in acidic water” value is on record as “soluble”. For the same molecule, the “solubility in alkaline water” value in “solubility in solvents” is “hardly soluble”. In “solubility in solvents”, the “solubility in lower alcohols, ketones” value was “soluble”. Further, in “solubility in solvents”, the “solubility in n-hexane and petroleum ether” value is reported as “hardly soluble”. In addition, the “solubility in neutral water” value in the data set “solubility in solvents” is given as “slightly soluble”. For the same molecule, the alkalinity result in data set [16] is “alkaline compounds”.
